Measurements taken from patent publication US10364267B2, “Deuterated bile acid derivatives as FXR/TGR5 agonists and methods of use thereof” (ENANTA PHARMACEUTICALS, INC., priority 2016, dated 2019).
pEC50: −log10 of the molar value.

Molecular target: T1, human FXR (NR1H4) (Homo sapiens, UniProt Q96RI1)
T1 construct: host or cells: CHO (Chinese hamster ovary) reporter cells
T1 sequence (Q96RI1 1-486): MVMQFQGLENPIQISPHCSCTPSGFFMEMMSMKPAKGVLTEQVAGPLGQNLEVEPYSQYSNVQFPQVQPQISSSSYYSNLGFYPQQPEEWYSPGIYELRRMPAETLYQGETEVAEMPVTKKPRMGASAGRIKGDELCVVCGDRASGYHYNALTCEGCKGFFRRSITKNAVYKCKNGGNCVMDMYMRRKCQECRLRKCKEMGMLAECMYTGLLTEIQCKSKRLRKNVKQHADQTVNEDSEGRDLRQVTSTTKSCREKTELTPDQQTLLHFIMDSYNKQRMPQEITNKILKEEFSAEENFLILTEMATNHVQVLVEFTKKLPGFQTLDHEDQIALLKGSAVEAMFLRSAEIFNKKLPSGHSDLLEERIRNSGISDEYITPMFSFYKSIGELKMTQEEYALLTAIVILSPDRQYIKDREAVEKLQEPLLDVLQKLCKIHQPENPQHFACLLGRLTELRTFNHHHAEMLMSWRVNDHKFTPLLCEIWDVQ
Assay: Human FXR (NR1H4) Assay (luciferase reporter, Indigo Bioscience kit)
Format: cell-based
Details: for Efficacy (%): efficacy normalized to CDCA set as 100%, CHO reporter cells expressing human NR1H4
Source text: Human FXR (NR1H4) Assay Determination of a ligand mediated Gal4 promoter driven transactivation to quantify ligand binding mediated activation of FXR. FXR Reporter Assay kit purchased from Indigo Bioscience (Catalogue number: IB00601) to determine the potency and efficacy of compound developed by Enanta that can induce FXR activation. The principle application of this reporter assay system is to quantify functional activity of human FXR. The assay utilizes non-human mammalian cells, CHO (Chinese hamster ovary) cells engineered to express human NR1H4 protein (referred to as FXR). Reporter cells also incorporate the cDNA encoding beetle luciferase which catalyzes the substrates and yields photon emission. Luminescence intensity of the reaction is quantified using a plate-reading luminometer, Envision. Reporter Cells include the luciferase reporter gene functionally linked to an FXR responsive promoter. Thus, quantifying changes in luciferase expression in the treated reporter cells provides a sensitive surrogate measure of the changes in FXR activity. […] The assay is according to the manufacturer's instructions. In brief, the assay was performed in white, 96 well plates using final volume of 100 ul containing cells with different doses of compounds. Retrieve Reporter Cells from −80° C. storage. Perform a rapid thaw of the frozen cells by transferring a 10 ml volume of 37° C. cell recovery medium into the tube of frozen cells. Recap the tube of Reporter Cells and immediately place it in a 37° C. water bath for 5-10 minutes. Retrieve the tube of Reporter Cell Suspension from the water bath. Sanitize the outside surface of the tube with a 70% alcohol swab, and then transfer it into the cell culture hood. Dispense 90 μl of cell suspension into each well of the 96-well Assay Plate. Transfer the plate into 37° C. incubator, allowing the cells adherent to the bottom of the well. Dilute compounds in Dilution Plate (DP), and administrate to cells at Assay Plate (AP). DMSO content of the samples was kept at 0.2%. Cells were incubated for additional 22 hours before luciferase activities were measured. Thirty minutes before intending to quantify FXR activity, remove Detection Substrate and Detection Buffer from the refrigerator and place them in a low-light area so that they may equilibrate to room temperature. Remove the plate's lid and discard all media contents by ejecting it into an appropriate waste container. Gently tap the inverted plate onto a clean absorbent paper towel to remove residual droplets. Cells will remain tightly adhered to well bottoms. Add 100 μl of luciferase detection reagent to each well of the assay plate. […] Set the instrument (Envision) to perform a single 5 second “plate shake” prior to reading the first assay well. Read time may be 0.5 second (500 mSec) per well.

SMILES	pEC50	Efficacy (%)
[2H]C([C@@H]1[C@@H]2C[C@H](O)CC[C@]2(C)C2CC[C@@]3(C)C(CC[C@@H]3[C@H](C)CCNC(=O)NS(=O)(=O)c3ccc(C(C)(C)C)cc3)C2[C@]1([2H])O)C([2H])([2H])[2H] (stereo partly shown) [Example 4]	> 7.00	197%
[2H]C([C@@H]1[C@@H]2C[C@H](O)CC[C@]2(C)C2CC[C@@]3(C)C(CC[C@@H]3[C@H](C)CCNC(=O)NS(=O)(=O)N(C)C)C2[C@]1([2H])O)C([2H])([2H])[2H] (stereo partly shown) [Example 5]	6.00 to 7.00	352. %
